Measurements as given in ChEMBL document CHEMBL1201862, “PubChem BioAssay data set” (2004).
Activity calls are given as the source filed them.

Columns and labels:
[1] = loss of viability in HepG2 cells – cell-based, CellTiter-Glo, cherry-picked, cytotoxicity control for Shn3 inhibitor project, dose response (AID 624134); assay type: functional
[2] = biological target: Nonstructural protein 1 (Influenza A virus, UniProt Q194T2); assay type: functional, Influenza A virus (A/California/07/2009(H1N1))
[3] = biological target: Heat shock protein HSP 90-alpha (Homo sapiens, UniProt P07900); assay type: functional, organism-based
[4] = reduction of Shn3 3'UTR-driven luciferase in osteoblasts – cell-based, Clone20 osteoblasts, firefly luciferase, cherry-picked, dose response (AID 624132); assay type: functional;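 also: firefly luciferase luminescence from reporter carrying the Shn3 3'UTR in osteoblasts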
[5] = non-specific 3'UTR reporter inhibition in Clone20-Shn3RL – cell-based, Renilla luciferase, cherry-picked, counter-screen for Shn3 inhibitor project, dose response (AID 624133); assay type: functional
[6] = tested on: Vero; assay: cells; assay type: functional; conditions: Chlorocebus sabaeus
[7] = biological target: Cytochrome P450 3A4 (Homo sapiens, UniProt P08684); conditions: Potency;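 also: confirmatory qHTS run detecting inhibitors and substrates of CYP3A4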
[8] = biological target: Eukaryotic translation initiation factor 4E (Mus musculus, UniProt P63073); assay: blockers of eIF4G binding by eIF4E – biochemical, TR-FRET, dose response (AID 855); assay type: functional;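 also: potency for disrupting eIF4E binding to eIF4GI seen as loss of FRET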
[9] = biological target: Genome polyprotein (dengue virus type 2, UniProt P29990); assay: flavivirus cap methylation enzyme inhibition – biochemical, confirmation dose response, primary screen (AID 588689); assay type: functional
[10] = biological target: T1, Cytochrome P450 1A2 (Homo sapiens, UniProt P05177);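 also: PubChem cytochrome P450 panel assay, CYP1A2 panel member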
T1 sequence (P05177 whole entry): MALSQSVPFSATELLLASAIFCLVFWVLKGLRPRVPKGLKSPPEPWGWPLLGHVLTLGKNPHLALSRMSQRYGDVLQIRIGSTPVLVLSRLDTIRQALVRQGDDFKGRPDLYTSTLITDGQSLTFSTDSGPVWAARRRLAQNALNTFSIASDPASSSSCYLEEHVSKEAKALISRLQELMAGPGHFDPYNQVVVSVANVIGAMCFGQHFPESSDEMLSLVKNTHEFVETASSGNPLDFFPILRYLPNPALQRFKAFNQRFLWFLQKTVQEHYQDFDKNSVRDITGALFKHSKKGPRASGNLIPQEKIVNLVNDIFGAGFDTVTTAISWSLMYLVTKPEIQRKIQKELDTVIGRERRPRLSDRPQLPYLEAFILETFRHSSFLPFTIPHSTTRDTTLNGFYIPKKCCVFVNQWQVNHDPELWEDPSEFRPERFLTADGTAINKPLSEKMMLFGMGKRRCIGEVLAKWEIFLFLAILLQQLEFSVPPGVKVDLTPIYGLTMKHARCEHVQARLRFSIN

[11] = cells; assay type: functional, cell-based
[12] = biological target: T2, Microphthalmia-associated transcription factor (Homo sapiens, UniProt O75030); assay: reducers of TRPM1 reporter luminescence, concentration series – cell-based, SK-MEL-5, cherry-picked, set 3, MITF inhibitor project, dose response (AID 493073); assay type: functional;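 also: SK-MEL-5 melanoma cells with luciferase driven by the MITF target TRPM1 promoter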
T2 sequence (O75030 whole entry): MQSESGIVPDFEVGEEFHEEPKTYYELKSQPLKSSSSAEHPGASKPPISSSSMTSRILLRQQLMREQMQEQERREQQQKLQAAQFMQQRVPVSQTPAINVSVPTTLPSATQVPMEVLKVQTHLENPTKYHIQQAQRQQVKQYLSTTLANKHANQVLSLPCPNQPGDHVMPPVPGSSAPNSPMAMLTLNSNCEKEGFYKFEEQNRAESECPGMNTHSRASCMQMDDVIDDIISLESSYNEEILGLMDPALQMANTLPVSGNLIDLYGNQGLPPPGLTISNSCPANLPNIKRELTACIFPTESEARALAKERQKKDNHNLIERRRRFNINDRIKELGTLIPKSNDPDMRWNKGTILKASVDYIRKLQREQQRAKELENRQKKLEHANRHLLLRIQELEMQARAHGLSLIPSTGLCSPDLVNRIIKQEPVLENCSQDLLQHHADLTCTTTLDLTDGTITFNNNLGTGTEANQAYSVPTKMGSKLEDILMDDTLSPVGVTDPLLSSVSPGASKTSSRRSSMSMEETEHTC

[13] = tested on: INS1; assay: INS-1E survival protection against cytokine death – cell-based, luminescence, retest, dose response (AID 449756); assay type: functional; conditions: Rattus norvegicus;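 also: cell death triggered by IL-1 beta plus TNF-alpha plus IFN-gamma mixture; protective hits raise ATP signal compared with cytokine alone wells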
[14] = cells; assay type: functional, cell-based; remark: listed apart in the source
[15] = biological target: Glyceraldehyde-3-phosphate dehydrogenase (Homo sapiens, UniProt P04406)
[16] = Vero E6 cell cytotoxicity, dose response, cytotoxicity control for non-replicating M. tuberculosis project, secondary assay (AID 492998); assay type: functional, VeroE6; conditions: Vero C1008
[17] = cells; assay type: functional
[18] = THP-1 cell cytotoxicity, dose response, cytotoxicity control for non-replicating M. tuberculosis project (AID 489025); assay type: functional
[19] = HIV-1 AD8 envelope cell-cell fusion blockers – cherry-pick, dose response (AID 652062); assay type: functional, cell-based;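 also: luciferase signal from cell-cell fusion driven by HIV-1 clade B AD8 Env; potency is for inhibitors of fusion seen as a drop in luminescence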
[20] = biological target: Paired box protein Pax-8 (Homo sapiens, UniProt Q06710); assay: PAX8 transcriptional activity inhibition in RMG-I – RMG-I cells, luciferase, cherry-pick, dose response (AID 687027); assay type: functional, cell-based;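 also: luciferase reporter driven by Pax8 target thyroperoxidase promoter measured by SteadyGlo luminescence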

## O=C(Nc1nc(-c2ccccn2)cs1)C1COc2ccccc2O1 (configuration not stated)
[1]
  AC50: 47.6 µM (active)
[2]
  IC50: 10.7 µM (active)
[3]
  AC50: 5.85 µM (active)
[4]
  AC50: 5.81 µM (active)
[5]
  AC50: 4.69 µM (active)
[6]
  CC50: 10 µM (active)

## O=C(/C=C/c1ccccc1)c1ccc(O)cc1O [2',4'-DIHYDROXYCHALCONE]
[7]
  AC50: 1.58 µM (inconclusive)

## CCNCC(O)COCC(O)CNCC (configuration not stated)
[8]
  IC50: > 64 µM (inactive)

## Oc1c(CN2CCOCC2)cc(CN2CCOCC2)c(O)c1O
[9]
  IC50: 15.2 µM (active)

## O=c1cc(-c2ccccc2)oc2c(O)c(O)ccc12 [7,8-DIHYDROXYFLAVONE]
[7]
  AC50: 39.8 µM (inconclusive)

## O=C(O)c1ccccc1C(=O)Nc1nccs1
[10]
  AC50: 15.8 µM (inconclusive)
[8]
  IC50: > 64 µM (inactive)

## O=C1Nc2ccc(Br)cc2/C1=C/C1CC=CCC1 (configuration not stated)
[3]
  AC50: 8.03 µM (active)

## COc1ccc(C(NC(C)=O)c2ccc3cccnc3c2O)c(OC)c1 (configuration not stated)
[1]
  AC50: 2.68 µM (active)
[11]
  EC50: > 350 µM (not active)
[12]
  AC50: 5.15 µM (active)
[4]
  AC50: 1.74 µM (active)
[5]
  AC50: 2.16 µM (active)
[13]
  AC50: 1.09 µM (active)
[14]
  EC50: 8.62 µM (active)

## O=C(O)CS(=O)(=O)c1ccc(-c2ccc(S(=O)(=O)CC(=O)O)cc2)cc1
[15]
  IC50: > 100 µM (not active)

## Cc1ccc(-c2nn(-c3ccccc3)cc2/C=N/NC(=O)c2ccncc2)o1
[16]
  CC50: > 20 µM (active)
[17]
  IC50: 0.22 µM (active)
[18]
  CC50: 32.8 µM (active)

## CC(=O)Nc1ccc(C2C(C)CCC3C(=O)N4C(CCC(C)[C@@H]4c4ccc(NC(C)=O)cc4)C(=O)N32)cc1 (some centres not stated)
[7]
  AC50: 3.16 µM (inconclusive)

## Cc1nn(-c2ccccc2)c(C)c1C(=O)OC(C)C(=O)NC1CCCCC1 (configuration not stated)
[1]
  AC50: 41.8 µM (active)
[4]
  AC50: 8.19 µM (active)
[5]
  AC50: 25.8 µM (active)

## CCC(NCc1ccc(F)cc1)=C1C(=O)N(C)C(=O)N(C)C1=O
[19]
  AC50: 12.2 µM (active)

## COc1cc(C(=O)OC2CC[C@]3(C)C4CCC5[C@]6(O)CC(O)[C@]7(O)C(CN8CC(C)CCC8[C@]7(C)O)[C@]6(O)C[C@@]53O[C@]24O)cc(OC)c1OC (some centres not stated)
[7]
  AC50: 20 µM (inconclusive)

## C[C@@H]1CN([C@@H](C)CO)C(=O)Cc2cc(N(C)C)ccc2O[C@H]1CN(C)Cc1ccc(Oc2ccccc2)cc1
[20]
  AC50: 11 µM (active)

## C[C@@H]1CN([C@@H](C)CO)C(=O)c2cc(NC(=O)c3ccccc3)ccc2O[C@@H](C)CCCCO[C@H]1CN(C)Cc1ccc(C(F)(F)F)cc1
[20]
  AC50: 10.1 µM (active)
